Earlier results on one compound are cited in patent US10813929B2, “Treating cancer with ATR inhibitors” (VERTEX PHARMACEUTICALS INCORPORATED, priority 2011, dated 2020).

Molecules are shown by their SMILES.

This series deals with pancreatic cancer. The settings on record: treatment with gemcitabine, increased from 10%; cited from earlier work.

In the case of `Nc1ccn([C@@H]2O[C@H](CO)[C@@H](O)C2(F)F)c(=O)n1` [gemcitabine], the 5-year survival is reported as 20%.
